Where two headings read alike, the source gives them in different places.
What was measured:
[1] = system: HCV subgenomic replicon RNA of genotype 1b strain N (Huh7/Rep-Feo cells); experiment: Luciferase assay in HCV subgenomic replicon cell line Huh7/Rep-Feo; format: cell-based, hepatitis C virus; settings: Huh7/Rep-Feo; for EC50: subgenome, read-out: EC50, fifty percent effective concentration based on the inhibition of HCV replication; for EC50 / SI, selectivity index (CC50/EC50): strain N (1b)
Description: (§1) The Huh7/Rep-Feo cell line, which harbors the subgenomic replicon RNA composed of HCV IRES, the gene of the fusion protein consisting of neomycin phosphotransferase and firefly luciferase, EMCV IRES and a nonstructural gene of genotype 1b strain N in order in Huh7 cell line, was previously established. Thus, the luciferase activity corresponds to the level of HCV RNA replication. The cell line was maintained in Dulbecco's modified Eagle medium containing 10% fetal calf serum and 0.5 mg/mL G418 and cultured in absence of G418 when they were treated with compounds. The Lunet/Con1LUN Sb #26 cell line, which harbors the subgenomic replicon RNA of the Con1 strain (genotype 1b), was described previously. The OR6 cell line, which harbors the full genomic replicon RNA of the O strain (genotype 1b), was described previously. The HCV replicon cell line derived from the genotype 2a strain JFH1 was described previously. The viral RNA derived from the plasmid pJFH1 was transcribed and introduced into Huh7OK1 cells according to the method of Wakita et al.. The virus was amplified by the several times passages. The cells were infected with the virus at a multiplicity of infection (moi) of 1 and then treated with each compound at 24 h post-infection. The culture supernatants were harvested 72 h post-treatment to estimate the viral RNA as described below.
(§2) The replicon cells were seeded at 2×10^4 cells per well in a 48-well plate 24 h before treatment. […] The resulting cells were harvested 72 h post-treatment and lysed with cell culture lysis reagent (Promega, Madison, WI). The luciferase activity of each cell lysate was estimated using a luciferase assay system (Promega). The resulting luminescence was detected by a Luminescencer-JNR AB-2100 (ATTO, Tokyo, Japan).

[2] = Cytotoxicity (MTS assay) in Huh7/Rep-Feo replicon cells; format: cell-based; settings: human, Huh7/Rep-Feo cells, MTS, read-out: CC50, fifty percent cytotoxicity concentration based on the reduction in cell viability
Description: (§3) The replicon cells were seeded at a density of 1×10^4 cells per well in a 96-well plate and then incubated at 37°C for 24 h. […] Cell viability was measured using a dimethylthiazol carboxymethoxy-phenylsulfophenyl tetrazolium (MTS) assay with a CellTiter 96 aqueous one-solution cell proliferation assay kit (Promega).

Huh7/Rep-Feo cells = experiment: as above; format: cell-based; settings: Huh7/Rep-Feo cells, 72 h, MTS; read-out: CC50, fifty percent cytotoxicity concentration based on the reduction in cell viability
Description: as §3

ISRE-promoter activity = experiment: ISRE reporter assay in Huh7 OK1 cells; format: cell-based; settings: 48 h of treatment, interferon alpha 2b as positive control
[3] = system: HCV subgenomic replicon of genotype 2a strain JFH1; experiment: Luciferase assay in genotype 2a JFH1 replicon cells; format: cell-based, hepatitis C virus; settings: Huh7 Rep/Reo-2a, JFH1 (2a)
Description: as §1, with “The cells were infected with the virus at a multiplicity of infection (moi) of 1 and then treated with each compound at 24 h post-infection. The culture supernatants were harvested 72 h post-treatment to estimate the viral RNA as described below.” left out
(§4) The replicon cells were seeded at 2×10^4 cells per well in a 48-well plate 24 h before treatment. […] The resulting luminescence was detected by a Luminescencer-JNR AB-2100 (ATTO, Tokyo, Japan).

EMCV or HCV IRES = experiment: Effect on IRES-dependent translation in transfected Huh7 cells; format: cell-based; settings: 40 µg/ml, 72 h
Description: (§5) Huh7 OK1 cells were transfected with pEF.Rluc.HCV.IRES.Feo or pEF.Rluc.EMCV.IRES.Feo [39]. These transfected cells were seeded at 2×10^4 cells per well in a 48-well plate 24 h before treatment, treated with DMSO or compound 10, and then harvested at 72 h post-treatment. The firefly luciferase activities were measured with a luciferase assay system (Promega). The total protein concentration was measured using the BCA Protein Assay Reagent Kit (Thermo Scientific, Rockford, IL, USA) to normalize luciferase activity. To evaluate the interferon response, Huh7OK1 cells were seeded on a 48 well plate at a density of 2×10^4 cells per well, and transfected with pISRE-TA-Luc (Takara bio, Shiga, Japan) and phRG-TK (Promega). These transfected cells were incubated in the presence of compounds, IFN-α 2b, or DMSO, and then harvested at 48 h post-treatment. The firefly luciferase and Renilla luciferase activities were quantified by using Dual luciferase reporter assay system (Promega).

[4] = system: firefly and Renilla luciferases; experiment: Effect on firefly and Renilla luciferase activities in transfected Huh7 cells; format: cell-based; settings: 40 µg/ml, 72 h
Description: as §5

[5] = system: HCV subgenomic replicon RNA of the Con1 strain (genotype 1b); experiment: Luciferase assay in Con1 LUN Sb #26 replicon cells; format: cell-based, hepatitis C virus
Description: as §1, with “The cells were infected with the virus at a multiplicity of infection (moi) of 1 and then treated with each compound at 24 h post-infection. The culture supernatants were harvested 72 h post-treatment to estimate the viral RNA as described below.” left out
as §4

HCV NS3 = experiment: Western blotting of NS3 in Huh7/Rep-Feo cells; format: cell-based, hepatitis C virus; settings: Huh7/Rep-Feo cells treated 72 h, dose-dependent
Description: Western blotting was carried out by the method described previously. The antibodies to NS3 (clone 8G-2, mousemonoclonal, Abcam, Cambridge, UK), and beta-actin were purchased from Cell Signaling Technology (rabbit polyclonal, Danvers, MA, USA) and were used as the primary antibodies in this study.

[6] = system: HCVcc derived from JFH-1 strain; experiment: HCVcc virus production in Huh7 OK1 cells (supernatant viral RNA by qRT-PCR); format: cell-based; settings: Hepatitis C virus, 24 h, read-out: EC50 of HCV viral production
Description: as §1, with “below. […]” for “below.”

[7] = system: HCV full genomic replicon RNA of the O strain (genotype 1b); experiment: Luciferase assay in OR6 full genome replicon cells; format: cell-based, hepatitis C virus
Description: as §1, with “The cells were infected with the virus at a multiplicity of infection (moi) of 1 and then treated with each compound at 24 h post-infection. The culture supernatants were harvested 72 h post-treatment to estimate the viral RNA as described below.” left out
as §4

[8] = system: HCV subgenomic replicon RNA of genotype 1b strain Con1; experiment: Drug combination analysis (CalcuSyn) in Con1 LUN Sb #26 replicon cells; format: cell-based, hepatitis C virus; settings: 72 h; for effect of combination with compound 10 on inhibition of HCV replication (combination index at EC50, EC75, EC90): CI <0.9 synergy, 0.9 to 1.1 additivity, >1.1 antagonism; for isobologram: location of calculated EC90 plots for combination with compound 10: under additive line = synergy, above = antagonism
Description: as §2
The effects of drug-drug combinations were evaluated by using the Con1 LUN Sb #26 replicon cells, and were analyzed by using the computer software CalcuSyn (Biosoft, Cambridge, United Kingdom). Dose inhibition curves of two different drugs were plotted with each other. In each drug combination, EC90 values of several combinations of two different drugs were plotted as the fractional concentration (FC) of both drugs on the x and y-axes. Additivity indicates the line linked between 1.0 FC value points of both drugs in the absence of each other. Synergy and antagonism are indicated by values plotted under and above, respectively, an additivity line. The explanatory diagram of isobologram is shown in a right end of lower panels of Figure 5A. Combination indexes (CIs) were calculated at the EC50, EC75, and EC90 by using CalcuSyn. A CI value of less than 0.9 indicates synergy. A CI value ranging from 0.9 to 1.1 indicates additivity. A CI value of more than 1.1 indicates antagonism. The explanatory diagram was shown in a right end of lower panels of Figure 5B.

O=C(O)/C=C/c1ccc(O)c(O)c1 [Compound 2, caffeic acid]
EC50 ([1]; Hepatitis C virus, Huh-7, 72 h): 36.6 ± 6.7 µM | SI, selectivity index (CC50/EC50) [1]: >8.7 | CC50 at 72 h ([2]; Huh7/Rep-Feo replicon cells): > 320 µM

COc1cc(/C=C/C(=O)O)ccc1O [Compound 3, ferulic acid]
EC50 ([1]; 72 h): 71.9 ± 5.8 µM | CC50 (Huh7/Rep-Feo cells): > 320 µM

O=C(C=Cc1ccccc1)OCCc1ccccc1 [Compound 4, Cinnamic acid phenethyl ester]
EC50 ([1]; 72 h): 86.1 ± 6.3 µM | CC50 (Huh7/Rep-Feo cells): > 320 µM

O=C(/C=C/c1ccc(O)c(O)c1)O[C@@H]1C[C@](O)(C(=O)O)C[C@@H](O)[C@H]1O [Compound 5, chlorogenic acid]
EC50 ([1]; Hepatitis C virus, Huh-7, 72 h): 103 ± 3.4 µM | SI, selectivity index (CC50/EC50) [1]: >3.1 | CC50 at 72 h ([2]; Huh7/Rep-Feo replicon cells): > 320 µM

O=C(/C=C/c1ccc(O)c(O)c1)O[C@H](Cc1ccc(O)c(O)c1)C(=O)O [Compound 6, Rosmarinic acid]
EC50 ([1]; Hepatitis C virus, Huh-7, 72 h): 110 ± 1.1 µM | SI, selectivity index (CC50/EC50) [1]: >2.9 | effect on ISRE-promoter activities (ISRE-promoter activity): no significant effects | CC50 at 72 h [2]: > 320 µM

COC(=O)/C=C/c1ccc(O)c(O)c1 [Compound 7, caffeic acid methyl ester]
EC50 ([1]; 72 h): 28.6 ± 1.2 µM | CC50 (Huh7/Rep-Feo cells): 122 ± 5 µM

CCCCCCCCOC(=O)/C=C/c1ccc(O)c(O)c1 [Compound 10, Caffeic acid n-octyl ester]
EC50 ([1]; Hepatitis C virus, Huh-7, 72 h): 2.7 ± 0.1 µM | SI, selectivity index (CC50/EC50) [1]: 26.6 | HCV RNA replication (luciferase activity) ([1]; various concentrations (compound 1: 1.3 to 40 µM), 72 h, dose-dependent): reduced | effect on ISRE-promoter activities (ISRE-promoter activity): no significant effects | EC50 ([3]; Hepatitis C virus, Huh-7, subgenome, 72 h, read-out: EC50, fifty percent effective concentration based on the inhibition of HCV replication): 1 ± 0.3 µM | SI, selectivity index (CC50/EC50) [3]: 60.0 | IRES-dependent translation (EMCV or HCV IRES): not effect | enzymatic activities of firefly and Renilla luciferases [4]: not effect | SI, selectivity index (CC50/EC50) ([5]; Con1 LUN Sb #26, Con1 (1b)): 63.1 | EC50 ([5]; Hepatitis C virus, Con1 LUN Sb #26, subgenome, Con1 (1b), 72 h, read-out: EC50, fifty percent effective concentration based on the inhibition of HCV replication): 1 ± 0.1 µM | NS3 protein level (HCV NS3): reduced | EC50 [6]: 1.8 ± 0.4 µM | EC50 ([7]; Hepatitis C virus, OR6, full genome, O (1b), 72 h, read-out: EC50, fifty percent effective concentration based on the inhibition of HCV replication): 1.5 ± 0.4 µM | SI, selectivity index (CC50/EC50) ([7]; OR6, O (1b)): 41.1 | CC50 at 72 h ([2]; Huh7/Rep-Feo replicon cells): 71.7 ± 8.5 µM

COC(=O)CCc1ccc(O)c(O)c1 [Compound 12, Dihydrocaffeic acid methyl ester]
EC50 ([1]; 72 h): 77 ± 1.6 µM | CC50 (Huh7/Rep-Feo cells): 141 ± 3.4 µM

CCCCCCCCOC(=O)/C=C/c1ccc(O)c(OC)c1 [Compound 13, 3-O-methylcaffeic acid n-octyl ester]
EC50 ([1]; Hepatitis C virus, Huh-7, 72 h): 10.2 ± 1.1 µM | SI, selectivity index (CC50/EC50) [1]: 5.9 | CC50 at 72 h ([2]; Huh7/Rep-Feo replicon cells): 60.3 ± 1.6 µM

CCCCCCCCOC(=O)/C=C/c1ccc(OC)c(O)c1 [Compound 14, 4-O-methylcaffeic acid n-octyl ester]
EC50 ([1]; Hepatitis C virus, Huh-7, 72 h): 19.6 ± 0.8 µM | SI, selectivity index (CC50/EC50) [1]: 3 | CC50 at 72 h ([2]; Huh7/Rep-Feo replicon cells): 59.2 ± 1.4 µM

CCCCCCCCOC(=O)C=Cc1cc(O)c(O)c(O)c1 [Compound 16, 3,4,5-Trihydroxycinnamic acid n-octyl ester]
EC50 ([1]; Hepatitis C virus, Huh-7, 72 h): 36.3 ± 2.9 µM | SI, selectivity index (CC50/EC50) [1]: 1.6 | CC50 at 72 h ([2]; Huh7/Rep-Feo replicon cells): 59.8 ± 6.9 µM

CC(C)(C)C#Cc1cc(N(C(=O)[C@H]2CC[C@H](C)CC2)[C@H]2CC[C@H](O)CC2)c(C(=O)O)s1 [VX-222]
effect of combination with compound 10 on inhibition of HCV replication (combination index at EC50, EC75, EC90) [8]: additive to synergistic effect | isobologram: location of calculated EC90 plots for combination with compound 10 [8]: under the additive line

COC(=O)N[C@H](C(=O)N1CCC[C@H]1c1nc(-c2ccc(-c3ccc(-c4c[nH]c([C@@H]5CCCN5C(=O)[C@@H](NC(=O)OC)C(C)C)n4)cc3)cc2)c[nH]1)C(C)C [daclatasvir]
effect of combination with compound 10 on inhibition of HCV replication (combination index at EC50, EC75, EC90) [8]: strong synergistic effect | isobologram: location of calculated EC90 plots for combination with compound 10 [8]: under the additive line

CC(C)(C)OC(=O)N[C@H]1CCCCC/C=C\[C@@H]2C[C@@]2(C(=O)NS(=O)(=O)C2CC2)NC(=O)[C@@H]2C[C@@H](OC(=O)N3Cc4cccc(F)c4C3)CN2C1=O [danoprevir]
effect of combination with compound 10 on inhibition of HCV replication (combination index at EC50, EC75, EC90) [8]: antagonistic to additive effect | isobologram: location of calculated EC90 plots for combination with compound 10 [8]: above the additive line

CCC[C@H](NC(=O)[C@@H]1[C@H]2CCC[C@H]2CN1C(=O)[C@@H](NC(=O)[C@@H](NC(=O)c1cnccn1)C1CCCCC1)C(C)(C)C)C(=O)C(=O)NC1CC1 [telaprevir]
effect of combination with compound 10 on inhibition of HCV replication (combination index at EC50, EC75, EC90) [8]: antagonistic effect | isobologram: location of calculated EC90 plots for combination with compound 10 [8]: above the additive line

Reference: publication PMC3866116 (PLoS ONE, 2013)
